Assay [1] concerns IL-4 stimulated expression of CD23 in human Ramos B cells (JAK-1 and JAK-3). The experiment in a line: Assay for Ramos B-Cell Line Stimulated with IL-4 (CD23 upregulation, FACS). In kind it is cell-based. Particulars: Homo sapiens, Ramos, Ramos B cells stimulated with IL-4, CD23 expression by FACS; read-out: IC50, Example 41. The essentials: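 Compound effect on IL-4-driven JAK1/JAK3 signalling is gauged as CD23 surface expression, measured by FACS after 20-24 h of stimulation with IL-4 at 50 units/mL final. A 1 h compound pre-treatment at 37 °C precedes stimulation, and IC50 is derived from the results.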
(In flow cytometry, cells or beads pass a laser one at a time.)

The subject of the next assay is Primary human T-cells. The experiment in a line: Primary Human T-Cell Proliferation Assay Stimulated with IL-2 (CellTiter-Glo). Particulars: Homo sapiens, T-cell, primary human T-cells stimulated with IL-2, proliferation; read-out: IC50, Example 42. The format is cell-based. The essentials: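 IC50 derived from CellTiter-Glo ATP signal after 72 hours of IL-2-driven proliferation at 37° C. Cells: primary human T-cells from blood, stimulated beforehand 3-4 days on anti-CD3/anti-CD28 with IL-2, then rested from IL-2 before compound exposure in duplicate; IL-2-free wells served as unstimulated control.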
(In general: ATP-based viability assays read luminescence as a measure of living cells.)

The structures appear in SMILES notation. Counter-ions that a name gives are not always drawn.

The term IC50 denotes the point on the concentration scale where inhibition reaches its midpoint.

As for `COc1ccc(CN2C(=O)C(C)Sc3ccc(Nc4nc(Nc5ccc(S(N)(=O)=O)cc5)ncc4F)cc32)cc1` (racemic) [Compound V-10, (R/S)-N2-(4-Aminosulphonylphenyl)-5-fluoro-N4-[2-methyl-3-oxo-4-(4-methoxybenzyl)-benzo[1,4]thiazin-6-yl]-2,4-pyrimidinediamine], the figures for the IC50 (in assay [1]; in the assay on Primary human T-cells) were 261 nM and 8270 nM, respectively.

For `N#CCN1C(=O)COc2ccc(Nc3nc(Nc4ccc(S(N)(=O)=O)cc4)ncc3F)cc21` [Compound V-6, N2-(4-Aminosulphonylphenyl)-5-fluoro-N4-(3-oxo-4-cyanomethyl-benz[1,4]oxazin-6-yl]-2,4-pyrimidinediamine], the IC50 was found to be 21.9 nM in assay [1] and 70.8 nM in the assay with Primary human T-cells.

In the case of `N#CCN1C(=O)COc2ccc(Nc3nc(Nc4cccc(S(N)(=O)=O)c4)ncc3F)cc21` [Compound V-7, N2-(3-Aminosulphonylphenyl)-5-fluoro-N4-(3-oxo-4-cyanomethyl-benz[1,4]oxazin-6-yl]-2,4-pyrimidinediamine], the IC50 worked out at 58.8 nM in assay [1] and 127 nM in the assay with Primary human T-cells.

On to `Cc1ccc(Nc2ncc(F)c(Nc3ccc4c(c3)N(CC#N)C(=O)CO4)n2)cc1S(N)(=O)=O` [Compound V-8, N2-(3-Aminosulphonyl-4-methylphenyl)-5-fluoro-N4-[3-oxo-4-cyanomethyl-benz[1,4]oxazin-6-yl]-2,4-pyrimidinediamine], for which the figures for the IC50 (in assay [1]; with Primary human T-cells) were 29.1 nM and 225 nM, respectively.

For `N#CCN1C(=O)CSc2ccc(Nc3nc(Nc4ccc(S(N)(=O)=O)cc4)ncc3F)cc21` [Compound V-11, N2-(4-Aminosulphonylphenyl)-5-fluoro-N4-(3-oxo-4-cyanomethyl-benzo[1,4]thiazin-6-yl)-2,4-pyrimidinediamine], the results for the IC50 (in assay [1]; with Primary human T-cells) were 69.8 nM and 795 nM, respectively.

With `N#CCN1C(=O)CSc2ccc(Nc3nc(Nc4cccc(S(N)(=O)=O)c4)ncc3F)cc21` [Compound V-12, N2-(3-Aminosulphonylphenyl)-5-fluoro-N4-(3-oxo-4-cyanomethyl-benzo[1,4]thiazin-6-yl)-2,4-pyrimidinediamine], the IC50 in assay [1] was 188 nM; in the assay with Primary human T-cells, 957 nM.

Consider `Cc1ccc(Nc2ncc(F)c(Nc3ccc4c(c3)N(CC#N)C(=O)CS4)n2)cc1S(N)(=O)=O` [Compound V-13, N2-(3-Aminosulphonyl4-methylphenyl)-5-fluoro-N4-(3-oxo-4-cyanomethyl-benzo[1,4]thiazin-6-yl)-2,4-pyrimidinediamine], for which the IC50 in assay [1] is 52.9 nM; with Primary human T-cells it was 468 nM.

With `NS(=O)(=O)c1ccc(Nc2ncc(F)c(NCCc3ccc(-n4ccnc4)cc3)n2)cc1` [III-90, N2-(4-Aminosulfonylphenyl)-5-fluoro-N4-[4-(1-imidazolyl)phenethyl]-2,4-pyrimidinediamine], the IC50 in assay [1] turned out to be 358 nM; in the assay on Primary human T-cells, 468 nM.

On to `NS(=O)(=O)c1cccc(Nc2ncc(F)c(Nc3ccc(Cc4ccncc4)cc3)n2)c1` [III-128, N2-(3-Aminosulfonylphenyl)-5-fluoro-N4-[4-(4-pyridylmethyl)phenyl]-2,4-pyrimidinediamine p-Toluenesulfonic Acid Salt], for which the figures for the IC50 (in assay [1]; in the assay with Primary human T-cells) were 145 nM and 139 nM, respectively.

In the case of `NS(=O)(=O)c1cccc(Nc2ncc(F)c(Nc3cccc(-c4cnco4)c3)n2)c1` [IV-1, N2-(3-Aminosulfonylphenyl)-5-fluoro-N4-[3-(1,3-oxazol-5-yl)phenyl]-2,4-pyrimidinediamine], the IC50 in assay [1] was 73.6 nM; in the assay on Primary human T-cells it was 287 nM.

Turning to `Cc1ccc(Nc2ncc(F)c(Nc3cccc(-c4cnco4)c3)n2)cc1S(N)(=O)=O` [IV-2, N2-(3-Aminosulfonyl-4-methylphenyl)-5-fluoro-N4-[3-(1,3-oxazol-5-yl)phenyl]-2,4-pyrimidinediamine], the IC50 came out at 80 nM in assay [1] and 362 nM with Primary human T-cells.

For the molecule `NS(=O)(=O)c1cccc(Nc2ncc(F)c(Nc3ccc(-c4cnco4)cc3)n2)c1` [IV-5, N2-(3-Aminosulfonylphenyl)-5-fluoro-N4-[4-(1,3-oxazol-5-yl)phenyl]-2,4-pyrimidinediamine], the values for the IC50 (in assay [1]; in the assay with Primary human T-cells) were 97.7 nM and 116 nM, respectively.

For the origin of these results see US11827628B2, “Compositions and methods for inhibition of the JAK pathway” (Rigel Pharmaceuticals, Inc., priority 2005, dated 2023).
